One compound from ChEMBL document CHEMBL2417552, “Screen of pseudopeptidic inhibitors of human sirtuins 1-3: two lead compounds with antiproliferative effects in cancer cells” (J Med Chem, 2013) can be followed below.

One may read the inhibition as the percentage by which the read-out fell short of the control. The term pIC50 denotes the negative decadic logarithm of the IC50, by convention in mol/L.

pIC50: −log10 of the molar value. The source made the active and inactive calls. The calls are words filed in the database; no cut-off is given here.

Assay [1] has as its system MCF7. Kind of assay: Growth inhibition of human MCF7 cells at >= 50 uM after 72 hrs by sulforhodamine B assay.
Assay [2] deals with T1, NAD-dependent protein deacetylase sirtuin-3, mitochondrial (Homo sapiens) (UniProt Q9NTG7).
T1 sequence (whole entry): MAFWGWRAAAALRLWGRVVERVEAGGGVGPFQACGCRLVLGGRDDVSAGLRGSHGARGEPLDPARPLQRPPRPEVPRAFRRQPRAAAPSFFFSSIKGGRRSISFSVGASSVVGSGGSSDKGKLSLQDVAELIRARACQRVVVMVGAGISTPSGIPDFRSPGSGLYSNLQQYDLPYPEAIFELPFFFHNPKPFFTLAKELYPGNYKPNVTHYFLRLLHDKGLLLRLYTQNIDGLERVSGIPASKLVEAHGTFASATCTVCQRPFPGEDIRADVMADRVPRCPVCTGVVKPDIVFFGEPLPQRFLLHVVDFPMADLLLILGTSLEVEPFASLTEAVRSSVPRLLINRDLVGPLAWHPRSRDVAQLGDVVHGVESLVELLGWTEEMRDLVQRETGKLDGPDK
To be noted: at 50 µM.
Description: Inhibition of human recombinant His-tagged SIRT3 using KI179 as substrate at 50 uM preincubated for 5 mins followed by enzyme addition measured after 1 hr by fluorescence assay relative to control

For assay [3], the system named is MCF7. Description: Cell cycle arrest in human MCF7 cells assessed as accumulation at S phase at 100 uM after 18 hrs by propidium iodide staining-based FACS flow cytometric analysis (reference value: 12.6%). Type of assay: functional.
For assay [4], the system named is MCF7. Description: Cytotoxicity against human MCF7 cells at 50 uM by LDH assay. Type of assay: functional, cell-based.
Assay [5] concerns the target T2, NAD-dependent protein deacetylase sirtuin-3, mitochondrial (Homo sapiens, UniProt Q9NTG7).
T2 sequence (Q9NTG7 whole entry): T1 sequence (whole entry)
Kind of assay: Inhibition of human recombinant His-tagged SIRT3 using KI179 as substrate preincubated for 5 mins followed by enzyme addition measured after 1 hr by fluorescence assay.

The test system of assay [6] is A549. Kind of assay: Cell cycle arrest in human A549 cells assessed as accumulation at G1 phase at 100 uM after 18 hrs by propidium iodide staining-based FACS flow cytometric analysis (reference value: 62.3%). Type of assay: functional. (A flow cytometer gives signals particle by particle.)

For the compound `COc1ccc(C(=O)CNC(=O)[C@H](CCCCNC(C)=S)NC(=O)OCc2ccccc2)cc1`, the “growth inhibition (GI)” value in assay [1] was “Active”. For the same compound, the inhibition in assay [2] stood at 82%. Besides, the Activity stood at 5.8% in assay [3] and 82.2% in assay [6]. For the same compound, in assay [4], the result was inactive. The pIC50 in assay [5] is 5.08.
